Source: patent US9629822B2, “Flavonoid based antiviral targets” (UNIVERSITY OF CENTRAL FLORIDA RESEARCH FOUNDATION, INC., priority 2012, dated 2017)
Where two headings read alike, the source gives them in different places.

Legend:
[1] = molecular target: T1, US28 receptor (Human cytomegalovirus, UniProt P69332); assay: PathDetect trans Elk1 luciferase reporter gene assay in US28-transfected 293T HEK cells; type: cell-based, Human Cytomegalovirus (HCMV); details: for EC50: 293T HEK cells transiently expressing US28, Elk1 reporter; for Emax: read-out: Efficacy(%), maximum intrinsic activity from dose-response curve; for type of activity on the US28 receptor (agonist / inverse agonist / none), in words: Elk1 reporter, US28-transfected HEK cells
T1 construct: expressed in transfected cells; host or cells: HEK 293T cells, transiently transfected
Text: Having generated a homologous series of chalcones and flavones, their ability to interact with the US28 receptor in human embryonic kidney (HEK) cells was investigated using an Elk-1 gene reporter assay (FIG. 2). HEK cells were transfected with either an empty vector (i.e., mock cells) or with a vector carrying US 28. These matched HEK cells provided a means to evaluate off-target effects as well as innate drug toxicity. As many of the flavonoid drugs were not water-soluble, all drug stock solutions were made in 100% dimethylsulfoxide (DMSO). The final DMSO concentration for each cell-based experiment, however, was 1% DMSO. To account for the presence of DMSO, 1% DMSO controls were run in parallel. […] values of the homologous series were also determined in Chinese hamster ovary (CHO) cells in order to assess the relative toxicities of each member of the series in a different cell line (see Table 1).
Interaction with the US28 receptor was measured by a decrease in luminescence using a firefly (Photinus pyralis) luciferase-based PathDetect Elk1 gene reporter assay (FIG. 2).^23,24 This assay assessed the modulation of US28-mediated activation of mitogen-activated protein kinase (MAPK) signaling pathways (results are shown in Table 1). […] Such compounds which reduce MAPK signaling will have direct utility in the treatment of proliferative disorders including but not limited cancer.
After transfection the US28 is expressed and activates MAPK. The MAPK phosphorylates the activator domain of the GAL4dbd/Elk1 fusion protein, and causes its dimerization. The dimer then binds to the GAL4 UAS region of the reporter gene and allows for luciferase transcription. The luciferase mRNA is then translated and the luciferase protein is detected via luminescence by the use of the Bright-Glo reagent.
(§1) The efficacy of each compound on the US28 receptor was investigated in luciferase based reporter gene assay PathDetect trans Elk1 (Agilent, Stratagene)^23 as described previously.^13 Briefly, the human embryonic kidney (HEK) 293T cells were transiently-transfected with 0.1 μg Elk1, 5 μg Luc, and 5 μg of US28 vector or empty pcDNA3 vector (mock cells). Five hours after transfection, the cells were washed with DMEM containing 1% FBS, harvested, seeded in a white half-area 96-well plate (20,000 cells/well) and incubated with the indicated concentrations of test compounds. The incubation buffer consisted of DMEM, 1% FBS, 2 mM L-glutamine, 1% penicillin-streptomycin and 1% DMSO. The cells were incubated at 37° C. in the humid atmosphere with 5% CO2 for an additional 20-24 hours. The luciferase substrate BrightGlo (Promega) was used according to the manufacturer's instruction. The luminescence intensity was acquired using microplate reader Victor3V (Perkin-Elmer). The basal luminescence of mock transfected cells was approximately 500 RLU and the basal luminescence of US28-transfected cells was 4-5-fold higher (2000-2500 RLU). As the inhibitors gave differential responses in terms of their ability to reduce US 28 mediated signaling, their relative EC50 values were determined by dosing the US-28 transfected HEK cells with increasing concentrations of each compound. In this case, the EC50 value is the concentration of the compound needed to provoke a response halfway between the compound's maximal response (change in luminescence) and the no-compound control in the same US-28 transfected cell line. A plot of relative luminescence versus log of the compound concentration provided a dose-response curve from which the % efficacy was derived via non-linear regression methods using the algorithms in PRISM 5.0 (GraphPad Software, San Diego, Calif.).

[2] = system: mock transfected 293T HEK cells; assay: PathDetect Elk1 luminescence in mock transfected (empty pcDNA3 vector) 293T HEK cells, off-target effect; type: cell-based, human; details: Homo sapiens, 10 μM vs 1% DMSO control, Equation 1; read-out: Effect(%) on mock cells with each drug at 10 μM
Method: As a control, the empty pcDNA3 plasmid vector and the components of PathDetect system were also used for mock transfection of 293T HEK cells. Controls containing 1% DMSO were run in parallel. The relative luminescence results found with mock transfected 293T HEK cells treated with 10 μM drug and the untreated 1% DMSO control were compared via the following Equation 1. % Effect on mock cells=(100%×(mock cell luminescence/DMSO control luminescence))−100% Equation (1)
This equation was derived in order to assess the net effect each compound had on non-US28 containing HEK cells transfected via the same protocol. These control experiments were critical as they provided a method to address off target effects such as compound toxicity, which could give rise to false positives in the PathDetect assay.
Compounds, which had no off-target effects, gave nearly identical luminescence values in both the mock cells and the 1% DMSO control (i.e., a mock cell luminescence/DMSO control luminescence ratio of 1) and a net effect of 0% via Equation 1 (e.g., 9j: 0% in Table 1). In contrast, compounds that were stimulatory to the treated HEK cells gave higher mock cell luminescence than the DMSO control, a ratio >1, and a net positive value in Equation 1 for the % effect on mock cells (e.g., 8f: 290%). On the other hand, compounds that were intrinsically toxic gave lower luminescence in the treated mock cells than the DMSO control, a ratio below 1, and a net negative value for the % effect on mock cells (e.g., 8d: ˜42%).
as §1

[3] = TZMbI assay for cell safety (cell viability and growth, CytoTox Glo); details: human, TZMbI cells, read-out: % decrease in viability compared to 0.1% DMSO vehicle based on viable cell luminescence
Method: Assays were performed below in accordance with the procedures set forth in The Journal of Immunology, 2006, 176, pp. 6900-905; AIDS Research and Human Retroviruses, 2004, 20:11, pp. 1157-1665.^32,33 TZMbI assays for cell safety were performed to identify potential anti-viral compounds. TZMbI assays for cell safety were performed to identify potential anti-viral compounds per the methods.

[4] = system: CHO cells; assay: CHO cell toxicity, MTS assay, 48 h; type: cell-based, Chinese hamster; details: Cricetulus griseus, CHO, 37° C., MTS reagent, read-out: CHO 48 h IC50 value
Method: In each case, the chalcone system 8 was more toxic than the corresponding ring-closed system, 9.
The CHO assay was conducted to assess the general toxicity of each flavonoid drug. Briefly, cell growth was assayed in sterile 96-well microtiter plates (Costar 3599, Corning, N.Y., USA) in the presence of each drug. Experiments were conducted in triplicate. CHO cells were plated at 10,000 cells/mL. Drug solutions were prepared in 100% DMSO and dosed so that the final DMSO concentration was <1%. For example, 1 μL of drug solution was added to the CHO cells plated in each well in 100 μL of media. Drug additions occurred after an initial overnight incubation of CHO cells in each well. After drug was added, the cells were incubated in 5% CO2 for 48 h at 37° C. The MTS reagent (Promega Cell Titer 96 Aqueous non-radioactive cell proliferation reagent) was added (20 μL) and the CHO cells were incubated for an additional 4h and then absorbance at 490 nm was measured on a BioTek Synergy MX plate reader. […] IC50 values were determined from the corresponding plot of relative absorbance at 490 nm vs drug concentration.

[5] = system: HIV-1 BaL; assay: Anti-HIV assay (luciferase, HIV-1 BaL infection); type: cell-based
Method: Assays were performed below in accordance with the procedures set forth in The Journal of Immunology, 2006, 176, pp. 6900-905; AIDS Research and Human Retroviruses, 2004, 20:11, pp. 1157-1665.^32,33 Cells were treated with 2 ng/mL p24 of HIV-1 BaL administered; MOI approx 0.02 (see refs 32, 33). Cells were treated with 2 ng/mL p24 of HIV-1 BaL administered; MOI approx 0.02 (see refs 32, 33).

[6] = EC50 (μM), NE = no effect when tested at 10 μM of compound
[7] = 10 μM, Experiment 1B, 2 ng/mL p24 HIV-1 BaL
[8] = Human immunodeficiency virus 1, BAL, 10 μM, Experiment 1B, 2 ng/mL p24 HIV-1 BaL
[9] = NE = no effect when tested at 10 μM of compound
[10] = Human immunodeficiency virus 1, BAL, 5 μM, Experiment 2B
[11] = Human immunodeficiency virus 1, BAL, 10 μM, Experiment 2B
[12] = Human immunodeficiency virus 1, BAL, 20 μM, Experiment 2B

T1 sequence (P69332 whole entry): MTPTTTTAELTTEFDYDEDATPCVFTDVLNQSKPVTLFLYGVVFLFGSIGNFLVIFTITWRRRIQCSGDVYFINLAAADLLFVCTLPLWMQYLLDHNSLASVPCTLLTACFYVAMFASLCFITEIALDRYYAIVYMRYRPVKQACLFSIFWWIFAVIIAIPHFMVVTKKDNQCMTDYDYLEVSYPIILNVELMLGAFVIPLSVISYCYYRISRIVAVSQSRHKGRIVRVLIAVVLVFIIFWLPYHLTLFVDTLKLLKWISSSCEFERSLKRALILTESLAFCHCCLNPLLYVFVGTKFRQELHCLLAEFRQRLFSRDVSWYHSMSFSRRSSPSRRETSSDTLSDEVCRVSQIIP

Compound | EC50 [1, 6] | Emax ([1]; negative = inverse agonism) | activation at 10 µM [2] | cytotoxicity at 10 μM ([3]; Experiment 1A) | IC50 [4] | RLU (relative luciferase units) [5, 7] | inhibition at 10 µM [5, 8] | melting point | EC50 [1, 9] | cytotoxicity at 5 μM ([3]; Experiment 2A) | cytotoxicity at 10 μM ([3]; Experiment 2A) | cytotoxicity at 20 μM ([3]; Experiment 2A) | RLU (relative luciferase units) ([5]; 5 μM, Experiment 2B) | RLU (relative luciferase units) ([5]; 10 μM, Experiment 2B) | RLU (relative luciferase units) ([5]; 20 μM, Experiment 2B) | inhibition at 5 µM [5, 10] | inhibition at 10 µM [5, 11] | inhibition at 20 µM [5, 12] | type of activity on the US28 receptor (agonist / inverse agonist / none), in words [1] | other results
COc1cc(OC)c(/C=C/C(=O)c2ccccc2O)cc1Br [Compound 8e, (E)-3-(5-bromo-2,4-dimethoxyphenyl)-1-(2-hydroxyphenyl)prop-2-en-1-one] | 4.9 µM | ~55% | 5% | 4.1% | 16.9 ± 1.3 µM | 671.4 RLU | 29% | 153 to 157 °C |  |  |  |  |  |  |  |  |  |  |  | 
COc1cc(Br)cc(-c2oc3ccccc3c(=O)c2O)c1OC [Compound 9d, 2-(5-Bromo-2,3-dimethoxyphenyl)-3-hydroxy-4H-chromen-4-one] |  |  |  | -7.3% | > 100 µM | 452.5 RLU | 51.7% | 153 to 158 °C | > 10 µM | -7.87% | -18.6% | -23.7% | 10.04 RLU | 25.14 RLU | 41.25 RLU | -7.87% | -18.6% | -23.7% |  | cytotoxicity at 40 μM ([3]; 40 μM, Experiment 2A): -33.1%; cytotoxicity at 80 μM ([3]; 80 μM, Experiment 2A): -8.38%; RLU (relative luciferase units) ([5]; 40 μM, Experiment 2B): 68.82 RLU; RLU (relative luciferase units) ([5]; 80 μM, Experiment 2B): 59.85 RLU; inhibition at 40 µM ([5]; Human immunodeficiency virus 1, BAL, 40 μM, Experiment 2B): -33.1%; inhibition at 80 µM ([5]; Human immunodeficiency virus 1, BAL, 80 μM, Experiment 2B): -8.38%
CCOc1ccc(Cl)cc1-c1oc2ccccc2c(=O)c1O [Compound 9i, 2-(5-chloro-2-ethoxyphenyl)-3-hydroxy-4H-chromen-4-one] |  | -41% |  | 21.8% | > 100 µM | 361.0 RLU | 61.4% | 156 to 159 °C |  | 10.7% | 18.7% | 21.6% | 204.06 RLU | 159.94 RLU | 81.12 RLU | 26.1% | 41.5% | 74.6% | inhibited US28 activity | EC50 ([1]; pEC50 ± SEM): 0.309 µM; cytotoxicity at 1.25 μM ([3]; 1.25 μM, Experiment 2A): 10.8%; cytotoxicity at 2.5 μM ([3]; 2.5 μM, Experiment 2A): 6.19%; RLU (relative luciferase units) ([5]; 1.25 μM, Experiment 2B): 254.23 RLU; RLU (relative luciferase units) ([5]; 2.5 μM, Experiment 2B): 238.44 RLU; inhibition at 1.25 µM ([5]; Human immunodeficiency virus 1, BAL, 1.25 μM, Experiment 2B): 2.53%; inhibition at 2.5 µM ([5]; Human immunodeficiency virus 1, BAL, 2.5 μM, Experiment 2B): 8.25%
COc1ccc(Br)cc1-c1cc(=O)c2ccccc2o1 [Compound 11d, 2-(5-Bromo-2-methoxyphenyl)-4H-chromen-4-one] | 8.1 µM | -55% |  | 23.6% | > 100 µM | 576.3 RLU | 38.4% | 161 to 164 °C |  |  |  |  |  |  |  |  |  |  | inverse agonism | Efficacy(%) ([1]; maximum intrinsic activity from dose-response curve, negative = inverse agonism): −55%
COc1ccc(Cl)cc1C1CC(=O)c2ccccc2O1 (stereo not drawn) [Compound 13h, 2-(5-Chloro-2-methoxyphenyl)chroman-4-one] | > 10 µM |  | -14% |  |  |  |  | 51 to 60 °C | > 10 µM |  |  |  |  |  |  |  |  |  | did not have any significant effect | 
